Data on six molecules can be found in patent publication US10392363B2, “Methods for treating protozoan infections” (Neoculi Pty Ltd., priority 2014, dated 2019).

Values joined by “and” are separate entries in the source; they are usually repeats but may differ in a detail not shown here. Equal values may be shown once.

Series [1] concerns Leishmania donovani promastigotes. The series is described as follows: L. donovani screening (Alamarblue). In kind it is cell-based. The note with it: for L. donovani SI: GI50 of macrophages divided by IC50 of parasites; for inhibition at 10 µM: 96 hrs, read-out: reduction of metabolic activity / inhibition of L. donovani. The protocol: L. donovani Screening. Procyclic promastigotes from exponentially growing cultures maintained in DME-L+ Bob additions were used for all assays. Compounds were initially screened for activity at 10 μM. Compounds were diluted in culture media to a […] in 96 well plates. Promastigotes were diluted to a density of ˜8×10^5 cells/ml then added to the assay plate resulting in a final cell density of 4×10^5 cells/ml. in 96 well plates. Cells were incubated for 96 hrs at 27° C. before the addition of Alamarblue (thermofisher). Fluorescence was read at excitation 530 nm and Emission 590 nm. […] Compounds were serially diluted in thirds, in a 96 well plate, in cell growth media so that concentrations ranged from 0.005 to 10 μM and promastigotes added to a final concentration of 1×10^6 cells/ml. Cells were incubated at 27° C. for 72 hours before the addition of alamar blue. Fluorescence was measured as above.
For orientation: Resazurin is reduced to fluorescent resorufin, in cell work by metabolically active cells.

The nature of series [2]: Cell toxicity assay (WST-1). The note with it: mouse, RAW 264.7 macrophages, RAW 264.7, 24 hours, read-out: GI50 macrophage. In kind it is cell-based, mouse. As to the method: Cell toxicity assays. Mouse macrophages (RAW 264.7) were grown in RPM11640 media supplemented with L-glutamine and 10% foetal calf serum. Cells were trypsanised when 80% confluent and subcultured every 3-4 days. For cytotoxicity assays cells were diluted to a final cell concentration of 2×10^4 cells/ml and 198 μl added to each well of a 96 well plate. Cells were incubated in a humidified incubator for 2 hours at 37° C. 5% CO2 before the addition of NCL compounds (2 μl/well, previously diluted in DMSO). Campothecin, triton X and DMSO only were used as controls. Cells were exposed to the compounds for 24 hours. The metabolic activity of the cells was determined using the WST-1 assay system (Roche Life Science). The supernatant was removed, 100 μl of PBS with 10% WST-1 was added to each well and incubated for 1 hr before reading absorbance at 450 nm. The selectivity index of the compounds was determined by dividing the IC50 of macrophages by the IC50 against parasites. IC50 was determined via graphpad prism software.
In general terms: Tetrazolium dyes change colour on reduction, which living cells bring about.

The nature of series [3]: Microsomal stability, human. In kind it is in vitro ADME. The note with it: human liver microsomes. The protocol: (§1) Incubation methods: The metabolic stability assay was performed by incubating each test compound (at 1 μM) with human and mouse liver microsomes (Xenotech, Lot#1210057 and 1310211, respectively) at 37° C. and 0.4 mg/mL protein concentration. The metabolic reaction was initiated by the addition of an NADPH-regenerating system (i.e. NADPH is the cofactor required for CYP450-mediated metabolism) and quenched at various time points over a 60 minute incubation period by the addition of acetonitrile containing diazepam as internal standard. Control samples (containing no NADPH) were included (and quenched at 2, 30 and 60 minutes) to monitor for potential degradation in the absence of cofactor. Analytical conditions: Instrument: Waters Micromass Xevo G2 QTOF coupled to a Waters Acquity UPLC; Detection: Positive electrospray ionisation under MSE mode; Cone Voltage 30 V; Column: Ascentis Express Amide column (50×2.1 mm, 2.7 μm); LC conditions: Gradient cycle time: 4 minutes; Injection volume: 5 μL; Flow rate: 0.4 mL/min; Mobile phase: Acetonitrile-water gradient with 0.05% formic acid Metabolite; Identification: A metabolite screen was not included in this study, however, since data was acquired using MSE mode, which allows for the simultaneous acquisition of low and high collision energy MS spectra, a post-hoc metabolite search may be conducted at a later date if warranted. […]
(Microsomes from liver hold many membrane-bound enzymes, among them those of drug oxidation.)

Series [4] is described as follows: Microsomal stability, mouse. The note with it: mouse liver microsomes. In kind it is in vitro ADME. The protocol: as §1
Series [5] deals with Trypanosoma cruzi (Tulahuen trypomastigotes expressing β-galactosidase, in L6 cells). The series is described as follows: In vitro T. cruzi assay for determination of IC50. Type of series: cell-based. The note with it: Trypanosoma cruzi, TULAHUEN, L6; 96 h incubation. The protocol:
The T. cruzi assay uses Tulahuen trypomastigotes expressing the β-galactosidase gene. The parasites were maintained in vitro by serial passage in L6 cells. […] Extracellular trypomastigotes were then removed and NCL compounds were added in seven-point serial dilutions performed in triplicate. Benznidazole (Epichem Pty Ltd.) was included as a control. […] After 4-6 h, a colour change following catabolisation of the reagent by viable T. cruzi was observed and absorbance was read at 530 nm using a Dynex microplate reader. […] For each compound, % inhibition values were used to generate a standard curve from which the IC50 was calculated. Each assay was performed at least twice, and the average was used.

In series [6] the test system is Giardia duodenalis (strain WB trophozoites). As to the kind of experiment: Giardia adherence assay. In kind it is cell-based. The note with it: NCL099 at 11, 38 and 128 μg/ml compared to the control. As to the method:
Giardia strain WB was grown until confluent (grown and maintained in TYI-S-33 medium with 10% foetal bovine serum). For the assay, media of a confluent culture was replaced with fresh TYI-S-33 medium. Cultures were then cold shocked (on ice) for 40 minutes to detach trophozoites. The cell density of the cultures was adjusted to 1×10^6 cells/ml and 1 ml was added to each well of a 24 well plate already containing 1 ml of diluted compounds (see below). […] After incubation the coverslips were removed, air-dried and stained with Diff-Quik (a Romanowski stain variant). Coverslips were mounted onto glass slides using polymount. Images at 10× magnification were taken at 5 random locations per coverslip. […] Stock solutions of compounds were prepared in DMSO at 25.6 mg/ml. Compounds were diluted 1:100 in TYI-S-33 medium. A 1:2 serial dilution was then performed in TYI-S-33 medium in 24 well plates.

In series [7] the test system is sheep erythrocytes. As to the kind of experiment: Erythrocyte haemolysis assay. Type of series: cell-based. The note with it: compared to NCL812 and NCL062. As to the method: Whole sheep blood was obtained from Thermofisher scientific. The red blood cells were separated from other blood components via centrifugation at 1500 g for 10 minutes and washed with saline 3 times. Erythrocytes were diluted to a concentration of ˜1×10^10 cells/ml in saline. 50 μl of NCL compounds diluted in DMSO (see below) were added to 1.5 ml Eppendorf tubes and 500 μl of diluted red blood cells were added to each tube. Erythrocytes were incubated with compounds for 30 minutes at 37° C. with gentle shaking (75 rpm). After incubation cells were placed on ice for 5 minutes then centrifuged at 1500 rpm for 10 minutes to pellet cells. The supernatant was removed and serially diluted in saline. Absorbance of the supernatant and dilutions were recorded at 550 nm. Sample lysis was compared relative to cells lysed 100% in distilled water and analysed using GraphPad Prism v6 software.

Series [8] in a line: Release from Formulation B (Franz diffusion cells). Type of series: physicochemical. The note with it: absolute ethanol receptor, 32° C., up to 24 hours. The protocol:
Franz diffusion cells were utilized to quantify the release rate of NCL 812 and NCL099 from its topical formulations. Five milliliters of absolute ethanol, which was chosen as the desired release medium, was loaded into the receptor chamber. Temperature of the receptor fluid was kept constant, at 32±1° C. using a water jacket. Acetyl cellulose membranes, with pore size of 0.45 μm (Pall Corporation) was selected and placed between donor and receptor chamber. Followed by that, a number of test samples (Formulation B) was loaded into the donor chamber. One milliliter of receptor fluid was collected at regular time intervals of 0.25, 0.50, 0.75, 1, 2, 3, 4, 5, 6, 7, 8 and 24 hours through the sampling port. One milliliter of fresh absolute ethanol was immediately returned to the receptor chamber. UV-HPLC was utilized to analyse the content of the receptor fluids attained.

The subject of series [9] is Giardia WB (Giardia duodenalis). The series is described as follows: Resazurin Reduction Assay (Example 9). In kind it is cell-based. As to the method: Giardia trophozoites were grown until confluent. The media was replaced with fresh media and cold shocked for 40 minutes. Compounds were prepared in DMSO and serially diluted 2-fold in DMSO starting at with a 1/100 dilution of the stock (e.g. 128 mg/ml stock starting dilution would be […]). 2 μl of dilutions were added to the appropriate wells and 198 ul of TYI-S-33 media added to each well. Cells were diluted to a concentration of ˜500 000 cells/ml and 100 μl were added to each well of the assay plate (except media only control). The assay was incubated in an anaerobic environment (candle jar) for 5 hours at 37° C. The media was removed and replaced with 100 μl of warm PBS then Alamarblue™ added to a concentration of 10%. The samples were incubated in an anaerobic environment until colour development. After incubation, the absorbance of each sample was read at 570 and 630 nm. The percent reduction of resazurin (Alamarblue™) was calculated (using the formula below) and data was analysed with GraphPad Prism v6 software. The formula used to calculate percent reduction of Alamarblue was ((Eoxi630×A570)−(Eoxi570×A630))/((Ered570×C630)−(Ered×C570))×100, Where: Eoxi630=34798, Eoxi570=80586, A570=absorbance at 570 nm, A630=absorbance at 630 nm, Ered570=155677, Ered630=5494, C630=absorbance of negative control well at 630 nm and C570=absorbance of negative control well at 570 nm.

The subject of series [10] is S. aureus ATCC 29213. The series is described as follows: S. aureus MIC. Type of series: cell-based. The note with it: MIC after 24 hours.
In series [11] the test system is T. cruzi infection. The note with it: cited from earlier work.

As for `COc1ccccc1/C=N/NC(=N)N/N=C/c1ccccc1OC.Cl` [NCL028], the 50% inhibitory concentration (IC50) – broadly, the concentration needed to halve the response being measured – in series [1] (72 hours) is 0.29 ± 0.05 µM; in series [1] (Leishmania donovani, 72 h), 0.37 µM; in series [5], 13 µM. Also, the figures for the “L. donovani SI” value in series [1] and in series [1] (listed as NCL 028) were “highly selective” and 27.9, respectively. The inhibition at 10 µM in series [1] (Leishmania donovani) turned out to be 100%. In addition, the GI50 (in general, the concentration giving 50% growth inhibition) at 24 h in series [2] amounted to 8.1 ± 2.76 µM. Further, the rate of degradation entry in [3] is given as “low (low (<0.3))”; in series [4] it was “high (high (0.7-0.95))”.

For the molecule `CC(C)(C)c1ccc(/C=N/NC(=N)N/N=C/c2ccc(C(C)(C)C)cc2)cc1.Cl` [NCL099], the “number of adherent cells” value in [6] is given as “significant decrease”. In addition, the “selectivity for bacterial and protozoal cells than mammalian cells” value in series [7] was “greater selectivity”. Further, the “release profile from Formulation B” value in [8] is “acceptable release profile”. The IC50 in series [1] (Leishmania donovani, 72 h) turned out to be 0.37 ± 0.04 µM. Also, in [1] (Leishmania donovani), the inhibition at 10 µM was found to be 100%. For the same molecule, the concentration for 50% growth inhibition (GI50) at 24 h in series [2] was determined as 7.66 ± 0.56 µM.

For the molecule `C/C(=N\NC(=N)N/N=C(\C)c1ccc(C(C)(C)C)cc1)c1ccc(C(C)(C)C)cc1.Cl` [NCL219], the IC50 is 1.03 µM and 0.4 µg/mL in [9] (Giardia, 5 h); 0.8 ± 0.1 µM in series [1] (Leishmania donovani, 72 h). In series [10] (Staphylococcus aureus, ATCC29213), the MIC (in general, the smallest concentration in the dilution series that meets the test's criterion for growth inhibition) is over 100 µg/mL. The “L. donovani SI” value was “highly selective” in series [1] and 24.08 in series [1] (listed as NCL 219). Also, in series [1] (Leishmania donovani), the inhibition at 10 µM turned out to be 100%. In addition, the 50% growth inhibitory concentration (GI50) at 24 h in series [2] was found to be 19.3 ± 3.77 µM.

`NC(N)=N/N=C(\CC1CCCCC1)c1ccc(Cl)cc1O` [NCL237]: the “Giardia WB IC50” value in series [9] (IC50 after 5 hours) is 22.8^ ug/ml. For the same molecule, in [10], the “S. aureus ATCC 29213 MIC” value came out at 4.8 µg/mL.

Consider `O=C(Cn1ccnc1[N+](=O)[O-])NCc1ccccc1` [benznidazole], for which, in series [11] (children with chronic T. cruzi infection, negative serology 3 to 4 years after treatment), the cure rate result was “around 60%”.

Turning to `CC1CS(=O)(=O)CCN1/N=C/c1ccc([N+](=O)[O-])o1` (centres unmarked) [nifurtimox], in [11] (anorexia, weight loss, nausea, vomiting), the “patients with gastrointestinal side effects” value is recorded as “up to 70%”.
